One may read the melting point as the temperature of the solid-liquid transition.

For `CC(C)n1nc(-c2c(-c3ccccc3)nn3ccc(OCCN4CC4)cc23)ccc1=O`, the melting point lay in the range of 159 to 160 °C. Under `COc1ccn2nc(-c3ccccc3)c(-c3ccc(=O)[nH]n3)c2c1` [Example 1, 5-methoxy-3-(3-oxo-2,3-dihydropyridazin-6-yl)-2-phenylpyrazolo[1,5-a]-pyridine] stands 245.5 to 247 °C. With `CC(C)n1nc(-c2c(-c3ccccc3)nn3ccc(OCCN4CCOCC4)cc23)ccc1=O` [Example 6, 5-[2-(4-morpholinyl)ethoxy]-3-(3-oxo-2-isopropyl-2,3-dihydropyridazin-6-yl)-2-phenylpyrazolo[1,5-a]pyridine] the figure was 160 to 162 °C; with `COc1ccc(S(=O)(=O)Oc2ccn3nc(-c4ccccc4)c(-c4ccc(=O)n(C(C)C)n4)c3c2)cc1` [Example 7, 5-(4-methoxyphenylsulfonyl)oxy-3-(3-oxo-2-isopropyl-2,3-dihydropyridazin-6-yl)-2-phenylpyrazolo[1,5-a]pyridine], 155 to 157 °C; with `CC(C)n1nc(-c2c(-c3ccccc3)nn3ccc(OCCc4ccccc4)cc23)ccc1=O` [Example 9, 5-Phenethyloxy-3-(3-oxo-2-isopropyl-2,3-dihydropyridazin-6-yl)-2-phenylpyrazolo[1,5-a]pyridine], 154.5 to 155.5 °C. Under `CC(C)Oc1ccn2nc(-c3ccccc3)c(-c3ccc(=O)n(C(C)C)n3)c2c1` [Example 10, 5-Isopropoxy-3-(3-oxo-2-isopropyl-2,3-dihydropyridazin-6-yl)-2-phenylpyrazolo[1,5-a]pyridine] stands 162 to 163 °C; under `CC(C)n1nc(-c2c(-c3ccccc3)nn3ccc(OCc4ccccn4)cc23)ccc1=O` [Example 12, 5-(2-Pyridinylmethoxy)-3-(3-oxo-2-isopropyl-2,3-dihydropyridazin-6-yl)-2-phenylpyrazolo[1,5-a]pyridine], 150 to 151 °C. As for `CC(C)n1nc(-c2c(-c3ccccc3)nn3ccc(OCCCN(C)C)cc23)ccc1=O` [Example 15, 5-(3-Dimethylaminopropoxy)-3-(3-oxo-2-isopropyl-2,3-dihydropyridazin-6-yl)-2-phenylpyrazolo[1,5-a]pyridine], the melting point fell in the range of 125 to 126 °C. `CC(C)n1nc(-c2c(-c3ccccc3)nn3ccc(OCCN4CCCCC4)cc23)ccc1=O` [Example 16, 5-[2-(1-Piperidinyl)ethoxy]-3-(3-oxo-2-isopropyl-2,3-dihydropyridazin-6-yl)-2-phenylpyrazolo[1,5-a]pyridine] displayed a melting point of 144 to 144.5 °C.

With `CC(C)n1nc(-c2c(-c3ccccc3)nn3ccc(OCCN4CCCC4)cc23)ccc1=O` [Example 17, 5-[2-(1-Pyrrolidinyl)ethoxy]-3-(3-oxo-2-isopropyl-2,3-dihydropyridazin-6-yl)-2-phenylpyrazolo[1,5-a]pyridine], the melting point lay in the range of 149 to 150 °C. Molecule `CC(C)n1nc(-c2c(-c3ccccc3)nn3ccc(OCCN4[C@H](C)COC[C@@H]4C)cc23)ccc1=O` [Example 18, 5-[2-{(3R,5S)-3,5-Dimethyl-4-morpholinyl}ethoxy]-3-(3-oxo-2-isopropyl-2,3-dihydropyridazin-6-yl)-2-phenylpyrazolo[1,5-a]pyridine] had a melting point of 145 to 146 °C.

Regarding `CC(C)n1nc(-c2c(-c3ccccc3)nn3ccc(OCc4ccncc4)cc23)ccc1=O` [Example 19, 5-(4-Pyridinylmethoxy)-3-(3-oxo-2-isopropyl-2,3-dihydropyridazin-6-yl)-2-phenylpyrazolo[1,5-a]pyridine], the melting point lay in the range of 218 to 219.5 °C.

Molecule `CC(C)n1nc(-c2c(-c3ccccc3)nn3ccc(OCc4cccnc4)cc23)ccc1=O` [Example 20, 5-(3-Pyridinylmethoxy)-3-(3-oxo-2-isopropyl-2,3-dihydropyridazin-6-yl)-2-phenylpyrazolo[1,5-a]pyridine] had a melting point of 145 to 146 °C. Regarding `CCCOc1ccn2nc(-c3ccccc3)c(-c3ccc(=O)n(C(C)C)n3)c2c1` [Example 21, 5-Propoxy-3-(3-oxo-2-isopropyl-2,3-dihydropyridazin-6-yl)-2-phenylpyrazolo[1,5-a]pyridine], the melting point is 161.5 to 162.5 °C. Regarding `CC(C)CCOc1ccn2nc(-c3ccccc3)c(-c3ccc(=O)n(C(C)C)n3)c2c1` [Example 22, 5-Isopentyloxy-3-(3-oxo-2-isopropyl-2,3-dihydropyridazin-6-yl)-2-phenylpyrazolo[1,5-a]pyridine], the melting point lay within 163 to 163.5 °C. With `CC(C)n1nc(-c2c(-c3ccccc3)nn3ccc(OCCC4CCCCC4)cc23)ccc1=O` [Example 23, 5-(2-Cyclohexylethoxy)-3-(3-oxo-2-isopropyl-2,3-dihydropyridazin-6-yl)-2-phenylpyrazolo[1,5-a]pyridine] the figure was 146 to 147 °C. Take `CC(C)n1nc(-c2c(-c3ccccc3)nn3ccc(OCCN4C[C@@H](C)O[C@@H](C)C4)cc23)ccc1=O` [Example 24, 5-[2-{(2R,6S)-2,6-Dimethyl-4-morpholinyl}ethoxy]-3-(3-oxo-2-isopropyl-2,3-dihydropyridazin-6-yl)-2-phenylpyrazolo[1,5-a]pyridine]: the melting point lay in the range of 157.5 to 158 °C. With `CCN(CC)CCOc1ccn2nc(-c3ccccc3)c(-c3ccc(=O)n(C(C)C)n3)c2c1` [Example 25, 5-[2-(Diethylamino)ethoxy]-3-(3-oxo-2-isopropyl-2,3-dihydropyridazin-6-yl)-2-phenylpyrazolo[1,5-a]pyridine] the figure was 92.5 to 94.5 °C; with `CCOc1ccn2nc(-c3ccccc3)c(-c3ccc(=O)n(C(C)C)n3)c2c1` [Example 26, 5-Ethoxy-3-(3-oxo-2-isopropyl-2,3-dihydropyridazin-6-yl)-2-phenylpyrazolo[1,5-a]pyridine], 181 to 182 °C; with `CC(=O)COc1ccn2nc(-c3ccccc3)c(-c3ccc(=O)n(C(C)C)n3)c2c1` [Example 27, 5-(2-Oxopropoxy)-3-(3-oxo-2-isopropyl-2,3-dihydropyridazin-6-yl)-2-phenylpyrazolo[1,5-a]pyridine], 172.5 to 173.5 °C. With `CC(C)n1nc(-c2c(-c3ccccc3)nn3ccc(OCCN4CCCC4=O)cc23)ccc1=O` [Example 28, 5-[2-(2-Oxo-1-pyrrolidinyl)ethoxy]-3-(3-oxo-2-isopropyl-2,3-dihydropyridazin-6-yl)-2-phenylpyrazolo [1,5-a]pyridine] the figure was 162 to 163 °C. Under `CC(C)n1nc(-c2c(-c3ccccc3)nn3ccc(OC4CCN(C(=O)OC(C)(C)C)CC4)cc23)ccc1=O` [Example 29, tert-Butyl 4-{[3-(3-oxo-2-isopropyl-2,3-dihydropyridazin-6-yl)-2-phenylpyrazolo[1,5-a]pyridin-5-yl]oxy}-1-piperidinecarboxylate] stands 176 to 179 °C; under `CC(C)n1nc(-c2c(-c3ccccc3)nn3ccc(OCC(=O)OCc4ccccc4)cc23)ccc1=O` [Example 32, Benzyl {[3-(3-oxo-2-isopropyl-2,3-dihydropyridazin-6-yl)-2-phenylpyrazolo[1,5-a]pyridin-5-yl]oxy}acetate], 174 to 174.5 °C; under `CC(C)n1nc(-c2c(-c3ccccc3)nn3ccc(OCCC4CCCC4)cc23)ccc1=O` [Example 33, 5-(2-cyclopentylethoxy)-3-(3-oxo-2-isopropyl-2,3-dihydropyridazin-6-yl)-2-phenylpyrazolo[1,5-a]pyridine], 159.5 to 160.5 °C.
